For data set [1], the target named is T1, CYP17A1 (Homo sapiens, UniProt P05093).
T1 construct: immortalised human adrenal cells expressing CYP17A1 and other steroidogenic enzymes; endogenous in cells; host or cells: NCI-H295R (human adrenal cells)
T1 sequence (P05093 1-508): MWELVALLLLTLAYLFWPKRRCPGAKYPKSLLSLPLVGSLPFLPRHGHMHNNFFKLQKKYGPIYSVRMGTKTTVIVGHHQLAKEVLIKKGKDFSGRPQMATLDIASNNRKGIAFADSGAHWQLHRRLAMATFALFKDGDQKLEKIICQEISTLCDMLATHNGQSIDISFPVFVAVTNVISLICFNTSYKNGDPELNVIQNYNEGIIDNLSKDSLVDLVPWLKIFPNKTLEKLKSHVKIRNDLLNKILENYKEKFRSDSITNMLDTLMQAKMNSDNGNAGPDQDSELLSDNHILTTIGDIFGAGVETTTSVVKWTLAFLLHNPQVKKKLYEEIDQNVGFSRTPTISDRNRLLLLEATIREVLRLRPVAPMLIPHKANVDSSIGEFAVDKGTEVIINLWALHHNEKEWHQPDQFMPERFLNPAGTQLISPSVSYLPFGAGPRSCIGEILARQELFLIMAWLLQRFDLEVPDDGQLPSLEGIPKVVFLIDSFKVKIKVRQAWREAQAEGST
As to the kind of experiment: CYP17A1 17α-hydroxylase activity assay in NCI-H295R cells ([14C]-progesterone, TLC). Type of data set: cell-based. The settings on record: 4 h, DMSO = 100, read-out: CYP17A1 Hydroxylase activity, Mean (percentage of activity remaining relative to the control). The protocol: (§1) Human adrenal NCI-H295R cells are an established model for assay of CYP17A1 activities. The NCI-H295R cells were seeded in 12-well plates at 500 000 cells per well and incubated overnight. On the following day, 10 µM of test compounds were added to the wells with fresh medium and incubated for 4 h. Abiraterone was used as a reference, and DMSO was included as a control. For assessing CYP17A1 hydroxylase activity, cells were treated with [^14C]-Progesterone at 10 000 cpm/1 µM per well. Trilostane was added prior to the test compounds and substrate to inhibit 3β-hydroxysteroid dehydrogenase activity so that a clean assay of only CYP17A1 activity could be performed[20]^,[27]^,[28]. Radiolabeled steroids were extracted from the media using a mixture of ethyl acetate and isooctane (1:1 v/v) and separated by Thin Layer Chromatography (TLC) on silica gel-coated aluminium plates (Supelco® Analytics, Sigma-Aldrich Chemie GmbH, Taufkirchen, Germany). TLC spots were visualised on a phosphor screen and detected by autoradiography using a Typhoon™ FLA-7000 PhosphorImager (GE Healthcare, Uppsala, Sweden). Radioactivity was quantified with ImageQuant™ TL analysis software (GE Healthcare Europe GmbH, Freiburg, Germany), and enzyme activity was expressed as the percentage of radioactivity incorporated into the product relative to the total radioactivity. For CYP17A1 lyase activity, cells were exposed to 50 000 cpm/1 µM [21-^3H]-17α-hydroxypregnenolone per well under similar conditions. The tritiated water release assay was used to measure the conversion of 17OH-Pregnenolone to DHEA. Steroids in the media were precipitated using a 5% activated charcoal/0.5% dextran solution. Enzyme activity was evaluated based on the water-soluble tritiated by-product formed in equimolar amounts with DHEA, with radioactivity in the aqueous phase quantified by liquid scintillation counting (MicroBeta2® Plate Counter, PerkinElmer Inc., Waltham, MA, USA). Percent inhibition was calculated relative to control samples.

Data set [2] has as its target T1, CYP17A1. Description: CYP17A1 activity calculated as ratios of steroid products to substrates (LC-MS). In kind it is cell-based. As to conditions: normalised to DMSO-treated cells (100%), NCI-H295R. The procedure:
(§2) Steroid quantification was performed using Liquid Chromatography–Mass Spectrometry (LC-MS), following established protocols to study effect of compounds on adrenal steroidogenesis. Human adrenal NCI-H295R cells were seeded in 12-well plates at 500 000 cells per well and treated with fresh growth medium containing the test compounds for 4 h. Subsequently, 1 µM pregnenolone was added and incubated for an additional 4 h. Steroids were extracted from 500 µL aliquots of cell media, separated, and quantified according to the referenced methodology.
To provide deeper insights into CYP17A1 inhibition, the enzyme activity was calculated using ratios of steroid products to substrates, focusing on dual activities of CYP17A1 (Figure 4(B)).

Data set [3] has as its target T1, CYP17A1. Description: CYP17A1 17,20-lyase activity assay in NCI-H295R cells (tritiated water release). In kind it is cell-based. The settings on record: 4 h, DMSO = 100, read-out: CYP17A1 Lyase activity, Mean (percentage of activity remaining relative to the control). The protocol:
as §1

Data set [4] deals with adrenal steroidogenesis in NCI-H295R cells. As to the kind of experiment: Steroid profiling by LC-MS in NCI-H295R cells. In kind it is cell-based, human. As to conditions: compounds at 10 µM; for Androsterone, Mean / Testosterone, Mean / Progesterone, Mean / Androstendione, Mean / 17a-Hydroxyprogesterone, Mean / DHEA, Mean / 11-Deoxycortisol, Mean / 11-Deoxycorticosterone, Mean / Pregnenolone, Mean: 1 µM pregnenolone; for Androsterone, Mean / Cortisone, Mean / DHEA-S, Mean / Dihydrotestosterone, Mean: DMSO 0; for Testosterone, Mean: DMSO 0.4785; for Progesterone, Mean: DMSO 4.814; for Androstendione, Mean: DMSO 7.577; for 17a-Hydroxyprogesterone, Mean: DMSO 9.967; for DHEA, Mean: DMSO 15.119; for 11-Deoxycortisol, Mean: DMSO 26.594; for 11-Deoxycorticosterone, Mean: DMSO 28.1555; for Pregnenolone, Mean: DMSO 2043.56; for Cortisone, Mean / DHEA-S, Mean / Dihydrotestosterone, Mean: not detected within the experimental timeframe. The protocol: as §2

Data set [5] relates to DU-145 cells. As to the kind of experiment: Scratch (wound healing) assay. The settings on record: DU-145, 10 µM; for Wound area, Mean (area remaining open): 24 h, DMSO 170.5; for Effect on cell migration (in words): after 24 h. In kind it is cell-based, human. The procedure:
Human prostate cancer DU-145 cells show strong cell proliferation and therefore, are an established model for assay of antiproliferative effects of test compounds. DU-145 cells were plated in 24-well plates at 50 000 cells per well and grown until they reached 85% confluence. To inhibit cell proliferation, cells were treated with 5 µg/mL mitomycin for 2 h. A wound was created using a 10 µL pipette tip. The cells were then exposed to drugs at a concentration of 10 µM, while control wells received DMSO. Wound closure was observed and photographed using an optical microscope after 24 h. Images were analysed using ImageJ software (version 1.54j).

Data set [6] concerns the target T1, CYP17A1. Description: CYP17A1 17,20-lyase activity assay in NCI-H295R cells (tritiated water release). Type of data set: cell-based. As to conditions: dose-response, read-out: IC50, inhibition of 17,20-lyase activity.
Data set [7] has as its system LNCaP cells. As to the kind of experiment: Alamar blue (resazurin) cell viability, LNCaP. In kind it is cell-based, human. As to conditions: 10 µM; for Effect on LNCaP cell viability (in words): 48 h. The protocol:
(§3) LNCaP and RWPE-1 cells were plated in 96-well plates at 10 000 cells per well and incubated overnight at 37 °C with 5% CO2. VCaP cells were plated at 12 000 cells per well under the same conditions. After 24 h, the medium was replaced with fresh medium containing the compounds or abiraterone at a final concentration of 10 µM. Cells were incubated for an additional 24 and 48 h. Cell viability was measured using the Alamar Blue assay. Post-incubation, 0.05 mg/mL Alamar Blue solution in phosphate-buffered saline (PBS) was added to each well. The plates were incubated in the dark at 37 °C for 4 h, and fluorescence was measured at an excitation wavelength of 550 nm and an emission wavelength of 590 nm. Cell viability was calculated relative to control sample treated with DMSO. All experiments were conducted in triplicate.
Background: Resazurin is reduced to fluorescent resorufin, in cell work by metabolically active cells.

Data set [8] deals with VCaP cells. As to the kind of experiment: Alamar blue (resazurin) cell viability, VCaP. In kind it is cell-based, human. The settings on record: Homo sapiens, VCaP, 24 h. The procedure:
as §3

Consider twelve molecules from article PMC11834790, “Pyridine indole hybrids as novel potent CYP17A1 inhibitors” (Journal of Enzyme Inhibition and Medicinal Chemistry, 2025).

Several values for one entry are separate records, joined by “and”; a condition that tells them apart may be missing. Identical values can stand only once.

For orientation: remaining activity means the signal under treatment as a percentage of the control signal. In general, IC50 refers to the concentration needed to halve the response being measured. As usually defined, the viability is a read-out of living cells in per cent, often relative to untreated cells. Higher therefore signals less harm to the cells.

For `CCCn1nnc2cc(-c3cc(-c4ccncc4)c(C#N)c(N)n3)ccc21` [Compound 1, 2-Amino-6–(1-propyl-1H-benzo[d][1,2,3]triazol-5-yl)-[4,4′-bipyridine]-3-carbonitrile], the remaining activity at 10 µM in data set [1] was 45%. Besides, in data set [2], the “17α-Hydroxylase activity (ratios of steroid products to substrates)” value is 1.8%; the “Combined 17α-hydroxylase and 17,20-lyase activity (ratios of steroid products to substrates)” value is 6.6%. Besides, the remaining activity at 10 µM in data set [3] came to 46.3%. In data set [4], the “Androsterone, Mean” value came out at 0 nmol/L; the “Testosterone, Mean” value is given as 0.4455 nmol/L; the “Progesterone, Mean” value was determined as 27.8235 nmol/L; the “Androstendione, Mean” value amounted to 1.564 nmol/L. In addition, in data set [4], the “17a-Hydroxyprogesterone, Mean” value was 0.977 nmol/L; the “DHEA, Mean” value is listed as 1.1015 nmol/L; the “11-Deoxycortisol, Mean” value is 5.22 nmol/L; the “11-Deoxycorticosterone, Mean” value is 41.58 nmol/L and 41.577 nmol/L. In data set [4], the “Pregnenolone, Mean” value turned out to be 2228.179 nmol/L; the “Cortisone, Mean” value was 0 nmol/L; the “DHEA-S, Mean” value is on record as 0 nmol/L; the “Dihydrotestosterone, Mean” value was determined as 0 nmol/L. For the same molecule, in data set [5], the “Wound area, Mean (area remaining open)” value turned out to be 731.5 Pixels^2 and the “Effect on cell migration (in words)” value was “less pronounced effect comparable to that exerted by abiraterone”. In addition, the IC50 in data set [6] is 10 nM.

`N#Cc1c(-c2ccccc2)cc(-c2ccccc2)nc1N` [Compound 2, 2-Amino-4,6-diphenylnicotinonitrile]: the values for the remaining activity at 10 µM in data set [1] and in data set [3] were 67% and 93.7%, respectively.

Consider `N#Cc1c(-c2ccccc2)cc(-c2cccnc2)nc1N` [Compound 3, 6-Amino-4-phenyl-[2,3′-bipyridine]-5-carbonitrile], for which the remaining activity at 10 µM in data set [1] is 84%; in data set [3], 94.7%.

With `N#Cc1c(-c2cccnc2)cc(-c2ccccc2)nc1N` [Compound 4, 2′-Amino-6′-phenyl-[3,4′-bipyridine]-3′-carbonitrile], the results for the remaining activity at 10 µM in data set [1] and in data set [3] were 71% and 68.5%, respectively.

Turning to `N#Cc1c(-c2ccccc2)cc(-c2ccncc2)c(C#N)c1N` [Compound 6, 3-Amino-5-(pyridin-4-yl)-[1,1′-biphenyl]-2,4-dicarbonitrile], the remaining activity at 10 µM in data set [1] came to 53%; in data set [3], 57.4%. For the same molecule, the “Cytotoxic effect on LNCaP cells (in words)” value in data set [7] (24 and 48 h) is recorded as “marked reduction in viability”. This molecule returned a viability at 10 µM in data set [8] of less than 50%.

As to `N#Cc1c(-c2cccnc2)cc(-c2cccnc2)c(C#N)c1N` [Compound 7, 2-Amino-4,6-di(pyridin-3-yl)isophthalonitrile], the remaining activity at 10 µM in data set [1] was 96%; in data set [3], 113%.

Turning to `N#Cc1c(-c2ccncc2)cc(-c2ccncc2)c(C#N)c1N` [Compound 8, 2-Amino-4,6-di(pyridin-4-yl)isophthalonitrile], the remaining activity at 10 µM in data set [1] worked out at 103%; in data set [3], 84.8%.

Turning to `N#Cc1c(-c2ccncc2)cc(-c2cccnc2)c(C#N)c1N` [Compound 9, 2-Amino-4-(pyridin-3-yl)-6-(pyridin-4-yl)isophthalonitrile], the results for the remaining activity at 10 µM in data set [1] and in data set [3] were 63% and 66.8%, respectively.

For the molecule `CCCn1nnc2cc(-c3cc(-c4ccncc4)c(C#N)c(N)c3C#N)ccc21` [Compound 10, 2-Amino-4–(1-propyl-1H-benzo[d][1,2,3]triazol-5-yl)-6-(pyridin-4-yl)isophthalonitrile], the remaining activity at 10 µM came to 32% in data set [1] and 58.2% in data set [3].

Consider `c1cncc(-c2ccc(-c3ccc4[nH]ccc4c3)cc2)c1` [Compound 13, 5-(4-(Pyridin-3-yl)phenyl)-1H-indole], for which the remaining activity at 10 µM in data set [1] is 76%; in data set [3], 93.5%.

Turning to `c1cc(-c2ccncc2)cc(-c2ccc3[nH]ccc3c2)c1` [Compound 14, 5-(3-(Pyridin-4-yl)phenyl)-1H-indole], the remaining activity at 10 µM in data set [1] was 35%. In data set [2], the “17α-Hydroxylase activity (ratios of steroid products to substrates)” value is reported as 1.5%. Moreover, in data set [7], the “Effect on LNCaP cell viability (in words)” value was “strong effect”. Further, the remaining activity at 10 µM in data set [3] was 23.9%. For the same molecule, in data set [4], the “Androsterone, Mean” value came to 0.61 nmol/L; the “Testosterone, Mean” value was determined as 0.4105 nmol/L; the “Progesterone, Mean” value came to 51.7765 nmol/L; the “Androstendione, Mean” value is 1.359 nmol/L. Besides, in data set [4], the “17a-Hydroxyprogesterone, Mean” value came out at 1.6245 nmol/L; the “DHEA, Mean” value is listed as 0.6075 nmol/L; the “11-Deoxycortisol, Mean” value was 3.75 nmol/L and 3.7485 nmol/L; the “11-Deoxycorticosterone, Mean” value is 3.518 nmol/L. Also, in data set [4], the “Pregnenolone, Mean” value turned out to be 2377.463 nmol/L; the “Cortisone, Mean” value is 0 nmol/L; the “DHEA-S, Mean” value was determined as 0 nmol/L; the “Dihydrotestosterone, Mean” value is reported as 0 nmol/L. Also, in data set [5], the “Wound area, Mean (area remaining open)” value worked out at 7074 Pixels^2 and the “Effect on cell migration (in words)” value is on record as “significant inhibition of cell migration”. The IC50 in data set [6] is 26 nM.

Regarding `c1cc(-c2ccc(-c3ccc4[nH]ccc4c3)cc2)ccn1` [Compound 15, 5-(4-(Pyridin-4-yl)phenyl)-1H-indole], the remaining activity at 10 µM in data set [1] amounted to 87%; in data set [3], 57.3%. In addition, the “Effect on LNCaP cell viability (in words)” value in data set [7] is “strong effect”.
